From US20190343828A1, “CAMPTOTHECIN PEPTIDE CONJUGATES” (SEATTLE GENETICS, INC., priority 2018, published 2019)

How the values were obtained:
[1] = system: CD30+ parental DEL lymphoma cell line; test: In vitro cytotoxicity, CellTiter-Glo 96 h, DEL; assay type: cell-based; details: Table 2, CD30+ parental DEL
Experimental: (§1) The parental DEL lymphoma cell line was cultured in the presence of brentuximab vedotin to induce over-expression of the MDR phenotype, resulting in the DEL brentuximab vedotin resistant line (DEL-BVR). Brentuximab vedotin, which is Ag2-vc-MMAE (DAR=4) was included as a control. Ex_4-1 refers to MP-PEG4-VKG-7-MAD-MDCPT.

[2] = system: CD30/MDR+ DEL-BVR cell line (DEL brentuximab vedotin resistant); test: In vitro cytotoxicity, CellTiter-Glo 96 h, DEL-BVR; assay type: cell-based; details: Table 2, CD30/MDR+ DEL-BVR
Experimental: as §1

[3] = system: B-lymphocyte cancer cells (SU-DHL-4); test: In vitro cytotoxicity, CellTiter-Glo 96 h, SU-DHL-4; details: Homo sapiens, SU-DHL-4, read-out: Cytotoxic potency as free drug, IC50, SU-DHL-4
Experimental: (§2) In vitro potency was assessed on multiple cancer cell lines. All cell lines were authenticated by STR profiling at IDEXX Bioresearch and cultured for no more than 2 months after resuscitation. Cells cultured in log-phase growth were seeded for 24 hours in 96-well plates containing 150 μl RPMI 1640 supplemented with 20% FBS. Serial dilutions of antibody-drug conjugates in cell culture media were prepared at 4× working concentrations, and 50 μl of each dilution was added to the 96-well plates. Following addition of test articles, cells were incubated with test articles for 4 days at 37° C. After 96 hours, growth inhibition was assessed by CellTiter-Glo® (Promega, Madison, Wis.) and luminescence was measured on a plate reader.
(§3) Cell viability was determined by CellTiter-Glo staining after 96 h exposure to ADC. […] Ag1 is an antibody targeting a ubiquitous and readily internalizable antigen on cancer cells, Ag2 is cAC10 antibody targeting CD30(+) cancer cells, Ag3 is h1F6 antibody targeting CD70(+) cancer cells, Ag4 is hMEM102 antibody targeting CD48(+) cancer cells, Ag5 is h20F3 antibody targeting NTB-A expressing cancer cells, and h00 is a non-binding control antibody.

[4] = system: renal carcinoma cells (786-O); test: In vitro cytotoxicity, CellTiter-Glo 96 h, 786-O; details: Homo sapiens, 786-0, read-out: Cytotoxic potency (IC50 class), 786-O
Experimental: as §2
(§4) Cell viability was determined by CellTiter-Glo staining after 96 h exposure to ADC.

[5] = system: Burkitt's lymphoma cells (Ramos); test: In vitro cytotoxicity, CellTiter-Glo 96 h, Ramos; details: Homo sapiens, read-out: Cytotoxic potency as free drug, IC50, Ramos
Experimental: as §2, §4

[6] = system: acute promyelocytic leukemia cells (HL-60); test: In vitro cytotoxicity, CellTiter-Glo 96 h, HL-60; details: Homo sapiens, HL-60, read-out: Cytotoxic potency (IC50 class), HL-60
[7] = system: pancreatic cancer cells (BxPC3); test: In vitro cytotoxicity, CellTiter-Glo 96 h, BxPC3; details: Homo sapiens, BXPC-3, read-out: Cytotoxic potency (IC50 class), BxPC3
[8] = system: melanoma cells (SK-MEL-5); test: In vitro cytotoxicity, CellTiter-Glo 96 h, SK-MEL-5; details: Homo sapiens, SK-MEL-5, read-out: Cytotoxic potency as free drug, IC50, SK-MEL-5
Experimental: as §2, §3

[9] = system: B-lymphocyte cancer cells (U266); test: In vitro cytotoxicity, CellTiter-Glo 96 h, U266; details: Homo sapiens, U-266, read-out: Cytotoxic potency as free drug, IC50, U266
Experimental: as §2, §3

[10] = system: multiple myeloma cells (MM.1R); test: In vitro cytotoxicity, CellTiter-Glo 96 h, MM.1R; details: read-out: Cytotoxic potency (IC50 class), MM.1R
Experimental: as §2, §3

[11] = system: acute myeloid leukemia cells (MOLM13); test: In vitro cytotoxicity, CellTiter-Glo 96 h, MOLM13; details: Homo sapiens, MOLM-13, read-out: Cytotoxic potency as free drug, IC50, MOLM13
Experimental: as §2, §4

[12] = system: Hodgkin's lymphoma cells (L540cy); test: In vitro cytotoxicity, CellTiter-Glo 96 h, L540cy; details: read-out: Cytotoxic potency (IC50 class), L540cy
Experimental: as §2, §4

[13] = system: multiple drug resistant acute promyelocytic leukemia cells (HL-60/RV); test: In vitro cytotoxicity, CellTiter-Glo 96 h, HL60/RV; details: Homo sapiens, HL-60, read-out: Cytotoxic potency (IC50 class), HL60/RV
Experimental: as §2, §4

[14] = 1000 ng/mL, relative to untreated cells
[15] = DAR in parenthesis of label, 96 h

**Q.** Which results are given for “Brentuximab vedotin [Ag2-vcMMAE (4), reference compound]”?
**A.** percent cells remaining at highest concentration tested, DEL [1, 14]: (1) percent; IC50, DEL [1, 15]: 0.0005 µg/mL; percent cells remaining at highest concentration tested, DEL-BVR [2, 14]: (93) percent; IC50, DEL-BVR [2, 15]: >1 µg/mL

**Q.** What does the source list for `CC[C@@]1(O)C(=O)OCc2c1cc1n(c2=O)Cc2c-1nc1cc3c(cc1c2CNCC(C)C)OCO3` [Compound 5i]?
**A.** IC50 [3]: 1 to 10 nM; IC50 [4]: 1 to 10 nM; IC50 [5]: 1 to 10 nM; IC50 [6]: 10 to 100 nM; IC50 [7]: 1 to 10 nM; IC50 [8]: 1 to 10 nM; IC50 [9]: 1 to 10 nM; IC50 [10]: 1 to 10 nM; IC50 [11]: 1 to 10 nM; IC50 [12]: 1 to 10 nM; IC50 [13]: 1 to 10 nM

**Q.** Which results are given for `CCCCNCc1c2c(nc3cc4c(cc13)OCO4)-c1cc3c(c(=O)n1C2)COC(=O)[C@]3(O)CC` [Compound 5k]?
**A.** IC50 [3]: 1 to 10 nM; IC50 [4]: 1 to 10 nM; IC50 [5]: 1 to 10 nM; IC50 [6]: 10 to 100 nM; IC50 [7]: 1 to 10 nM; IC50 [8]: 1 to 10 nM; IC50 [9]: 1 to 10 nM; IC50 [10]: 1 to 10 nM; IC50 [11]: 1 to 10 nM; IC50 [12]: 1 to 10 nM; IC50 [13]: 1 to 10 nM

**Q.** Which results are given for `CC[C@@]1(O)C(=O)OCc2c1cc1n(c2=O)Cc2c-1nc1cc3c(cc1c2CNCc1ccc(N)cc1)OCO3` [Compound 5e]?
**A.** IC50 [3]: 1 to 10 nM; IC50 [4]: 10 to 100 nM; IC50 [5]: 1 to 10 nM; IC50 [6]: 10 to 100 nM; IC50 [7]: 10 to 100 nM; IC50 [8]: 10 to 100 nM; IC50 [9]: 10 to 100 nM; IC50 [10]: 1 to 10 nM; IC50 [11]: 1 to 10 nM; IC50 [12]: 1 to 10 nM; IC50 [13]: 100 to 1000 nM

**Q.** With `CC[C@@]1(O)C(=O)OCc2c1cc1n(c2=O)Cc2c-1nc1cc3c(cc1c2CNC(C)C)OCO3` [Compound 5c] as the compound, how does the IC50 [3] read?
**A.** Its IC50 is 1 to 10 nM.

**Q.** And the IC50 [4]?
**A.** Its IC50 is 1 to 10 nM.

**Q.** And the IC50 [5]?
**A.** The IC50 was 0.1 to 1 nM.

**Q.** What about the IC50 [6] of the same compound?
**A.** Its IC50 is 1 to 10 nM.

**Q.** What about the IC50 [7] of the same compound?
**A.** The IC50 was 1 to 10 nM.

**Q.** What about the IC50 [8] of the same compound?
**A.** The IC50 was 1 to 10 nM.

**Q.** And the IC50 [9]?
**A.** The IC50 was 1 to 10 nM.

**Q.** And the IC50 [10]?
**A.** The IC50 was 1 to 10 nM.

**Q.** What about the IC50 [11] of the same compound?
**A.** Its IC50 is 1 to 10 nM.

**Q.** What about the IC50 [12] of the same compound?
**A.** The IC50 was 1 to 10 nM.

**Q.** And the IC50 [13]?
**A.** Its IC50 is 1 to 10 nM.

**Q.** `CC[C@@]1(O)C(=O)OCc2c1cc1n(c2=O)Cc2c-1nc1cc3c(cc1c2C1CCCCCC1)OCO3` [Compound 6j] was tested. Which IC50 [3] did it give?
**A.** The IC50 was 1 to 10 nM.

**Q.** What about the IC50 [4] of the same compound?
**A.** Its IC50 is 1 to 10 nM.

**Q.** What about the IC50 [5] of the same compound?
**A.** Its IC50 is 0.1 to 1 nM.

**Q.** What about the IC50 [6] of the same compound?
**A.** Its IC50 is 10 to 100 nM.

**Q.** What about the IC50 [7] of the same compound?
**A.** Its IC50 is 1 to 10 nM.

**Q.** What about the IC50 [8] of the same compound?
**A.** Its IC50 is 1 to 10 nM.

**Q.** What about the IC50 [9] of the same compound?
**A.** The IC50 was 1 to 10 nM.

**Q.** What about the IC50 [10] of the same compound?
**A.** Its IC50 is 1 to 10 nM.

**Q.** And the IC50 [11]?
**A.** Its IC50 is 1 to 10 nM.

**Q.** And the IC50 [12]?
**A.** The IC50 was 1 to 10 nM.

**Q.** What about the IC50 [13] of the same compound?
**A.** Its IC50 is 1 to 10 nM.

**Q.** How did the IC50 [3] turn out when `CC[C@@]1(O)C(=O)OCc2c1cc1n(c2=O)Cc2c-1nc1cc3c(cc1c2CO)OCO3` [Compound 8c] was run?
**A.** The IC50 was 0.1 to 1 nM.

**Q.** And the IC50 [4]?
**A.** The IC50 was 1 to 10 nM.

**Q.** And the IC50 [5]?
**A.** Its IC50 is 0.1 to 1 nM.

**Q.** What about the IC50 [6] of the same compound?
**A.** Its IC50 is 10 to 100 nM.

**Q.** What about the IC50 [7] of the same compound?
**A.** The IC50 was 1 to 10 nM.

**Q.** What about the IC50 [8] of the same compound?
**A.** The IC50 was 1 to 10 nM.

**Q.** What about the IC50 [9] of the same compound?
**A.** Its IC50 is 1 to 10 nM.

**Q.** What about the IC50 [10] of the same compound?
**A.** The IC50 was 1 to 10 nM.

**Q.** And the IC50 [11]?
**A.** Its IC50 is 1 to 10 nM.

**Q.** What about the IC50 [12] of the same compound?
**A.** The IC50 was 0.1 to 1 nM.

**Q.** And the IC50 [13]?
**A.** Its IC50 is 1 to 10 nM.

**Q.** How did the IC50 [3] turn out when `CC[C@@]1(O)C(=O)OCc2c1cc1n(c2=O)Cc2c-1nc1cc3c(cc1c2C1CCCC1)OCO3` [Compound 6i] was run?
**A.** The IC50 was 0.1 to 1 nM.

**Q.** What about the IC50 [4] of the same compound?
**A.** The IC50 was 1 to 10 nM.

**Q.** What about the IC50 [5] of the same compound?
**A.** Its IC50 is 0.1 to 1 nM.

**Q.** What about the IC50 [6] of the same compound?
**A.** Its IC50 is 10 to 100 nM.

**Q.** What about the IC50 [7] of the same compound?
**A.** Its IC50 is 1 to 10 nM.

**Q.** And the IC50 [8]?
**A.** The IC50 was 1 to 10 nM.

**Q.** And the IC50 [9]?
**A.** The IC50 was 1 to 10 nM.

**Q.** And the IC50 [10]?
**A.** The IC50 was 1 to 10 nM.

**Q.** And the IC50 [11]?
**A.** Its IC50 is 1 to 10 nM.

**Q.** What about the IC50 [12] of the same compound?
**A.** The IC50 was 1 to 10 nM.

**Q.** And the IC50 [13]?
**A.** The IC50 was 1 to 10 nM.

**Q.** What does the source list for `CC[C@@]1(O)C(=O)OCc2c1cc1n(c2=O)Cc2c-1nc1cc3c(cc1c2CNCCC(c1ccccc1)c1ccccc1)OCO3` [Compound 5o]?
**A.** IC50 [3]: 10 to 100 nM; IC50 [4]: 10 to 100 nM; IC50 [5]: 1 to 10 nM; IC50 [6]: 100 to 1000 nM; IC50 [7]: 10 to 100 nM; IC50 [8]: 10 to 100 nM; IC50 [9]: 10 to 100 nM; IC50 [10]: 10 to 100 nM; IC50 [11]: 10 to 100 nM; IC50 [12]: 1 to 10 nM; IC50 [13]: 10 to 100 nM

**Q.** What does the source list for `CCc1c2c(nc3ccc(O)cc13)-c1cc3c(c(=O)n1C2)COC(=O)[C@]3(O)CC` [Compound 8d]?
**A.** IC50 [3]: 1 to 10 nM; IC50 [4]: 1 to 10 nM; IC50 [5]: 10 to 100 nM; IC50 [6]: 1 to 10 nM; IC50 [7]: 1 to 10 nM; IC50 [8]: 1 to 10 nM; IC50 [9]: 1 to 10 nM; IC50 [10]: 1 to 10 nM; IC50 [11]: 1 to 10 nM; IC50 [12]: 10 to 100 nM; IC50 [13]: 10 to 100 nM

**Q.** For `CC[C@@]1(O)C(=O)OCc2c1cc1n(c2=O)Cc2c-1nc1cc3c(cc1c2CNCc1ccccc1)OCO3` [Compound 5j], which IC50 [3] is on record?
**A.** The IC50 was 1 to 10 nM.

**Q.** And the IC50 [4]?
**A.** The IC50 was 1 to 10 nM.

**Q.** What about the IC50 [5] of the same compound?
**A.** Its IC50 is 1 to 10 nM.

**Q.** What about the IC50 [6] of the same compound?
**A.** The IC50 was 10 to 100 nM.

**Q.** What about the IC50 [7] of the same compound?
**A.** The IC50 was 1 to 10 nM.

**Q.** What about the IC50 [8] of the same compound?
**A.** The IC50 was 1 to 10 nM.

**Q.** What about the IC50 [9] of the same compound?
**A.** The IC50 was 1 to 10 nM.

**Q.** And the IC50 [10]?
**A.** Its IC50 is 1 to 10 nM.

**Q.** And the IC50 [11]?
**A.** Its IC50 is 1 to 10 nM.

**Q.** And the IC50 [12]?
**A.** Its IC50 is 1 to 10 nM.

**Q.** And the IC50 [13]?
**A.** Its IC50 is 1 to 10 nM.
